Test: recombinant UMI read abundance after kanamycin selection (control-corrected) (log10(CPM+1)); higher = more efficient recombination; extreme values may be limits of the assay; sequences stand for … in AGTGCAGAGAAAATCGGCCAGTTTTCTCTGCCTGCAGTCCGCATGCCGTGGGACCCCTTGGGTTCTAACCTGTTGCCTAGATTTATGCAGCGGACTGCCTTTCTCCCAAAGTGATAAACCGG…AGGTTGGTTTCACT; site = the 11-nt donor
Protocol: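 Pooled E. coli donor-specificity screen for the IS621 bridge recombinase. Each library member carries a reprogrammed 11-nt donor and a full-length LE bridge RNA expressed in cis from the natural promoter, with a paired donor-binding loop (8-nt LDG + 4-nt RDG) and a target-binding loop fixed to T5. It is co-electroporated with a T5 target plasmid; recombinase is induced with 0.07 mM IPTG and recombinants are selected on kanamycin. UMIs are counted as CPM, averaged over two biological replicates and corrected by the unselected control. Molecule = full bridge RNA written as DNA, built from the T5 scaffold: LDG = donor specificity nt 1-8, RDG = reverse complement of nt 8-11.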
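Further: IS621 bridge recombinase in Escherichia coli cells against a fixed T5 target plasmid.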

| Sequence | recombinant UMI read abundance (log10) |
| --- | --- |
| ACAGGAACATGGACCGGTTTTCCCGGTAATCCGTATTTGTC (site ACAGGAACTGA) | 2.43 |
| ACAGGAACATGGACCGGTTTTCCCGGTAATCCGTATTTGTC (site ACATGAACTGA) | 0.289 |
| ACAGGACCATGGACCGGTTTTCCCGGTAATCCGTATTTGGA (site ACAGGACCTTC) | 0.00625 |
| ACAGGATCATGGACCGGTTTTCCCGGTAATCCGTATTTGCC (site ACAGGATCTGG) | 2.27 |
| ACAGGATCATGGACCGGTTTTCCCGGTAATCCGTATTTGCC (site ACAGTATCTTG) | 0 |
| ACAGGGTCATGGACCGGTTTTCCCGGTAATCCGTATTTGCA (site ACAGGGTCTTG) | 3.2 |
| ACAGGGTCATGGACCGGTTTTCCCGGTAATCCGTATTTGCA (site ACAGTATCTTG) | 1.89 |
| ACAGTACCATGGACCGGTTTTCCCGGTAATCCGTATTTGCC (site ACAGTACCTGG) | 0 |
| ACAGTACCATGGACCGGTTTTCCCGGTAATCCGTATTTGCC (site ACAGTATCTTG) | 0.966 |
| ACAGTAGCATGGACCGGTTTTCCCGGTAATCCGTATTTGTA (site ACAGTAGCTTA) | 2.87 |
| ACAGTAGCATGGACCGGTTTTCCCGGTAATCCGTATTTGTA (site ACAGTATCTTG) | 1.49 |
| ACAGTATCATGGACCGGTTTTCCCGGTAATCCGTATTTGCG (site ACAGTATCTAG) | 2.18 |
| ACAGTATCATGGACCGGTTTTCCCGGTAATCCGTATTTGCG (site ACAGTATCTCG) | 3.51 |
| ACAGTATCATGGACCGGTTTTCCCGGTAATCCGTATTTGCG (site ACAGTATCTGG) | 2.14 |
| ACAGTATCATGGACCGGTTTTCCCGGTAATCCGTATTTGCG (site ACAGTATCTTG) | 2.57 |
| ACAGTATCATGGACCGGTTTTCCCGGTAATCCGTATTTGTG (site ACAGTATCTCA) | 3.03 |
| ACAGTATCATGGACCGGTTTTCCCGGTAATCCGTATTTGTG (site ACAGTATCTTG) | 1.03 |
| ACATAAGCATGGACCGGTTTTCCCGGTAATCCGTATTTGAA (site ACATAAGCTTT) | 2.7 |
| ACATATACATGGACCGGTTTTCCCGGTAATCCGTATTTGTG (site ACATATACTCA) | 1.81 |
| ACATATACATGGACCGGTTTTCCCGGTAATCCGTATTTGTG (site ACATCTACTCA) | 0.0121 |
| ACATATACATGGACCGGTTTTCCCGGTAATCCGTATTTGTG (site ACATGTACTCA) | 0.021 |
| ACATATACATGGACCGGTTTTCCCGGTAATCCGTATTTGTG (site ACATTTACTCA) | 0.0115 |
| ACATCCACATGGACCGGTTTTCCCGGTAATCCGTATTTGTG (site ACATCAACTCA) | 0.0218 |
| ACATCCACATGGACCGGTTTTCCCGGTAATCCGTATTTGTG (site ACATCCACTCA) | 0.309 |
| ACATCCACATGGACCGGTTTTCCCGGTAATCCGTATTTGTG (site ACATCGACTCA) | 0.00941 |
| ACATCCACATGGACCGGTTTTCCCGGTAATCCGTATTTGTG (site ACATCTACTCA) | 0.0155 |

| Sequence | recombinant UMI read abundance (log10) |
| --- | --- |
| ACATCTACATGGACCGGTTTTCCCGGTAATCCGTATTTGCG (site ACATCTACTCA) | 0.195 |
| ACATCTACATGGACCGGTTTTCCCGGTAATCCGTATTTGCG (site ACATCTACTCC) | 0.0147 |
| ACATCTACATGGACCGGTTTTCCCGGTAATCCGTATTTGCG (site ACATCTACTCG) | 1.2 |
| ACATCTACATGGACCGGTTTTCCCGGTAATCCGTATTTGCG (site ACATCTACTCT) | 0.353 |
| ACATCTACATGGACCGGTTTTCCCGGTAATCCGTATTTGGG (site ACATCTACTCA) | 0.0151 |
| ACATCTACATGGACCGGTTTTCCCGGTAATCCGTATTTGGG (site ACATCTACTCC) | 0.54 |
| ACATCTACATGGACCGGTTTTCCCGGTAATCCGTATTTGGG (site ACATCTACTCG) | 0.00576 |
| ACATCTACATGGACCGGTTTTCCCGGTAATCCGTATTTGGG (site ACATCTACTCT) | 0.0169 |
| ACATCTACATGGACCGGTTTTCCCGGTAATCCGTATTTGTG (site AAATCTACTCA) | 0.00563 |
| ACATCTACATGGACCGGTTTTCCCGGTAATCCGTATTTGTG (site ACAACTACTCA) | 0.00896 |
| ACATCTACATGGACCGGTTTTCCCGGTAATCCGTATTTGTG (site ACACCTACTCA) | 0.00963 |
| ACATCTACATGGACCGGTTTTCCCGGTAATCCGTATTTGTG (site ACAGCTACTCA) | 0.0992 |
| ACATCTACATGGACCGGTTTTCCCGGTAATCCGTATTTGTG (site ACATATACTCA) | 0.324 |
| ACATCTACATGGACCGGTTTTCCCGGTAATCCGTATTTGTG (site ACATCAACTCA) | 0.0141 |
| ACATCTACATGGACCGGTTTTCCCGGTAATCCGTATTTGTG (site ACATCCACTCA) | 0.0072 |
| ACATCTACATGGACCGGTTTTCCCGGTAATCCGTATTTGTG (site ACATCGACTCA) | 0.0136 |
| ACATCTACATGGACCGGTTTTCCCGGTAATCCGTATTTGTG (site ACATCTACTAA) | 0.044 |
| ACATCTACATGGACCGGTTTTCCCGGTAATCCGTATTTGTG (site ACATCTACTCA) | 0.552 |
| ACATCTACATGGACCGGTTTTCCCGGTAATCCGTATTTGTG (site ACATCTACTCC) | 0.0178 |
| ACATCTACATGGACCGGTTTTCCCGGTAATCCGTATTTGTG (site ACATCTACTCG) | 0.279 |
| ACATCTACATGGACCGGTTTTCCCGGTAATCCGTATTTGTG (site ACATCTACTCT) | 0.188 |
| ACATCTACATGGACCGGTTTTCCCGGTAATCCGTATTTGTG (site ACATCTACTGA) | 0 |
| ACATCTACATGGACCGGTTTTCCCGGTAATCCGTATTTGTG (site ACATCTACTTA) | 0 |
| ACATCTACATGGACCGGTTTTCCCGGTAATCCGTATTTGTG (site ACATCTCCTCA) | 0.0291 |
| ACATCTACATGGACCGGTTTTCCCGGTAATCCGTATTTGTG (site ACATCTGCTCA) | 0.0534 |
| ACATCTACATGGACCGGTTTTCCCGGTAATCCGTATTTGTG (site ACATCTTCTCA) | 0.234 |

From the supplement of paper PMC11208160
